According to patent US11975041B2, “Composition comprising CHP (cyclo-his pro) for preventing, improving or treating of bone loss related disease” (NovMetaPharma Co., Ltd., priority 2017, dated 2024):
“Also recorded” adds a separate entry of the source.

Assays:
[1] = test system: ovariectomized animal model; experiment: Osteoporosis alleviation in ovariectomized animal model, Micro CT of femur; type: in vivo, SD female mice
Protocol: To determine the effect of alleviating osteoporosis in an ovariectomized animal model according to administration of CHP, a zinc salt, or a mixture thereof, 20-week-old SD female mice (SLC/Central Experimental Animal Co. Ltd., Seoul, Korea) were purchased and raised under certain conditions (temperature: 22±2° C., relative humidity: 55±10%, light/dark cycle: 12 hours). 7 mice/group were allowed to freely drink water and eat food in a cage, subjected to an adaptation period of 1 week before the experiment, and used in the experiment.
After 6 weeks of the administration of CHP, a zinc salt, or a mixture thereof, the effect of alleviating osteoporosis in an ovariectomized animal model was analyzed using Micro CT. The bone mineral density of ovariectomized animals was measured by bone CT scanning of the 3 mm range at the front side of a 2 mm femoral growth plate using micro-CT (QuantumFX, Perkin Elmer, Massachusetts, USA). In addition, a bone volume fraction (BV/TV, %) was measured. The measurement results of the bone mineral density of the femur are illustrated in FIG. 1, and the bone volume fraction is illustrated in FIG. 2.

MC3T3-E1 cells = experiment: Alkaline phosphatase (ALP) activity / osteogenic differentiation of MC3T3-E1 osteoblasts; type: cell-based
Protocol: MC3T3-E1 cells were incubated in MEMα, an ascorbic acid-free medium containing 10% FBS and 1% penicillin/streptomycin, in a 5% CO2 incubator at 37° C. To induce osteogenic differentiation, 10 mM β-glycerophosphate and […] of ascorbic acid was further added to the basal medium composition.
500 μl of 1×10^5 MC3T3-E1 cells were seeded into a 24-well plate and cultured for 24 hours until they reached 100% confluency. […] At this time, in the undifferentiated group, which is a negative control for differentiation, a basal medium was used instead of the differentiation medium. In the positive control treated with hPTH1-34, the medium was replaced with a differentiation medium 6 hours after the treatment. While the medium was replaced every 48 hours, each concentration of CHP and hPTH1-34 was treated for a total of 14 days.
On day 14 of differentiation, the medium was removed, followed by washing once with PBS and fixing in 4% paraformaldehyde (PFA) at room temperature for 5 minutes. 500 μl of a 1-STEP™ NBCT/BCIP solution was added to allow a reaction to occur at room temperature for 1 hour. The reaction product was washed with distilled water, and then dried at room temperature, and the degree of coloring of the cells was observed using a microscope. Subsequently, DMSO was added to each well, followed by shaking, and then absorbance at 525 nm was measured.

With O=C1N[C@@H](Cc2cnc[nH]2)C(=O)N2CCC[C@@H]12 [CHP, cyclo-hispro] the “bone mineral density of the femur” value ([1]; 1 mg/L of CHP in drinking water, 6 weeks, micro-CT, compared to the ovariectomized group (FIG. 1)) was “significant increase”, the “bone volume fraction (BV/TV)” value ([1]; 1 mg/L of CHP in drinking water, 6 weeks, micro-CT, compared with positive control risedronate (FIG. 2)) was “restored to a level similar to that of the positive control” and the “effect on bone mineral density and bone volume fraction relative to zinc salt and zinc salt + CHP mixture groups” value ([1]; CHP alone vs zinc salt-administered group and combined administration group) was “significantly stronger”. The “bone mineral density of a femur” value ([1]; CHP alone, ovariectomized animal model, dose not stated (FIG. 1)) was “significantly increased”, the “bone volume fraction of a femur” value ([1]; CHP alone, ovariectomized animal model, dose not stated (FIG. 2)) was “significantly increased” and the “ALP activity (absorbance at 525 nm)” value (MC3T3-E1 cells; 2 mM CHP, day 14, compared with positive control hPTH1-34 10 nM (FIG. 4)) was “level similar to that of the positive control; also recorded: same or similar to that of a positive control”. The “osteogenic differentiation (degree of coloring, ALP staining)” value (MC3T3-E1 cells; 0.5, 1, 2 mM CHP, day 14 of differentiation, compared to negative control (FIG. 3)) was “remarkably increased degree of coloring; also recorded: osteogenic differentiation and bone modeling were promoted”.
